Like-named read-outs stand apart in the source and are kept apart here.
Legend:
α4β4-nAChR = biological target: T1, α4β4-nAChR (Homo sapiens, UniProt P30926+P43681); assay: 86Rb+ efflux nAChR functional assay, SH-EP1-hα4β4 cells; type: cell-based; details: EC80-EC90 carbamylcholine, parentheses = S.E.M. as multiplication/division factor, read-out: nAChR inhibition IC50 α4β4
T1 construct: expressed in transfected cells; host or cells: SH-EP1 epithelial cells (SH-EP1-hα4β4)
Source text: (§1) Cell Lines and Culture: Human embryonic kidney (HEK-293) cells stably expressing human DAT, NET or SERT were maintained as previously described in Eshleman, A. J.; Carmolli, M.; Cumbay, M.; Martens, C. R.; Neve, K. A.; Janowsky, A., J. Pharmacol. Exp. Ther. 1999, 289, (2), 877-885. Use was made of several human cell lines that naturally or heterologously express specific, functional, human nAChR subtypes. Cells of the TE671/RD line naturally expresses muscle-type nAChR (a1β1γδ- or α1*-nAChR), and SH-SY5Y neuroblastoma cells naturally expresses autonomic α3β4*-nAChRs (containing α3, β4, probably α5, and sometimes β2 subunits). Different clones of SH-EP1 epithelial cell lines have been engineered to heterologously express either α4β2-nAChR, which are thought to be the most abundant, high affinity nicotine-binding nAChR in mammalian brain, or α4β4-nAChR, another possible brain nAChR subtype (SH-EP1-hα4β2 or α4β4 cells, respectively). These cells were maintained as low passage number (1-26 from our frozen stocks) cultures to ensure stable expression of native or heterologously-expressed nAChR as previously described (see Lukas, R. J.; Fryer, J. D.; Eaton, J. B.; L., G. C., Some methods for studies of nicotinic acetylcholine receptor pharmacology, in Nicotinic receptors and the Nervous System, Levine, E. D., Ed. CRC Press: Boca Raton, 2002; pp 3-27, incorporated herein by reference in its entirety). Cells were passaged once weekly by splitting just-confluent cultures 1/300 (TE671/RD), 1/5 (SH-SY5Y), or 1/20 (transfected SH-EP1) in serum-supplemented medium to maintain log-phase growth.
(§2) After cells had adhered (generally overnight, but no sooner than 4 h later), the medium was removed and replaced with 250 μL per well of complete medium supplemented with ˜350,000 cpm of ^86Rb^+ (PerkinElmer Life and Analytical Sciences, Boston, Mass.) and counted at 40% efficiency using Cerenkov counting (TriCarb 1900 liquid scintillation analyzer[…]; PerkinElmer Life Sciences).
(§3) After at least 4 h and typically overnight, ^86Rb^+ efflux was measured using the “flip-plate” technique. See Lukas, R. J.; Fryer, J. D.; Eaton, J. B.; L., G. C., Some methods for studies of nicotinic acetylcholine receptor pharmacology, in Nicotinic receptors and the Nervous System, Levine, E. D., Ed. CRC Press: Boca Raton, 2002; pp 3-27, incorporated herein by reference in its entirety). Briefly, after aspiration of the bulk of ^86Rb^+ loading medium from each well of the “cell plate,” each well containing cells was rinsed 3× with 2 mL of fresh ^86Rb^+ efflux buffer (130 mM NaCl, 5.4 mM KCl, 2 mM CaCl2, 5 mM glucose, 50 mM HEPES, pH 7.4) to remove extracellular ^86Rb^+. Following removal of residual rinse buffer by aspiration, the flip-plate technique was used again to simultaneously introduce 1.5 mL of fresh efflux buffer containing drugs of choice at indicated final concentrations from a 24-well “efflux/drug plate” into the wells of the cell plate. After a 5 min incubation, the solution was “flipped” back into the efflux/drug plate, and any remaining buffer in the cell plate was removed by aspiration. Cells remaining in the cell plate were lysed and suspended by addition of 1.5 mL of 0.1 M NaOH, 0.1% sodium dodecyl sulfate to each well.
(§4) Similarly, the sum of ^86Rb^+ in cell plates and efflux/drug plates also determined the efficiency of ^86Rb^+ loading (the percentage of applied ^86Rb^+ actually loaded into cells).
(§5) Specific efflux was then taken as the difference in control samples between total and non-specific ^86Rb^+ efflux. Any intrinsic agonist activity of test drugs was ascertained using samples containing test drug only at different concentrations and was normalized, after subtraction of non-specific efflux, to specific efflux in test drug-free, control samples.

[1] = biological target: T2, 5HT transporters [(h)SERT] (Homo sapiens, UniProt P31645); assay: Inhibition of [3H]serotonin uptake into HEK293 cells stably expressing hSERT; type: cell-based
T2 construct: expressed in transfected cells; host or cells: HEK-293
Source text: as §1
(§6) See, for example, Damaj, M. I.; Carroll, F. I.; Eaton, J. B.; Navarro, H. A.; Blough, B. E.; Mirza, S.; Lukas, R. J.; Martin, B. R., Mol. Pharmacol. 2004, 66, (3), 675-682 and Eshleman, A. J.; Carmolli, M.; Cumbay, M.; Martens, C. R.; Neve, K. A.; Janowsky, A., J. Pharmacol. Exp. Ther. 1999, 289, (2), 877-885, both incorporated by reference herein in their entireties.

α4β2-nAChR = biological target: T3, α4β2-nAChR (Homo sapiens, UniProt P17787+P43681); assay: 86Rb+ efflux nAChR functional assay, SH-EP1-hα4β2 cells; type: cell-based
T3 construct: expressed in transfected cells; host or cells: SH-EP1 epithelial cells (SH-EP1-hα4β2)
Source text: as §1, §2, §3, §4, §5

NE transporters [h(NET)] = biological target: T4, NE transporters [h(NET)] (Homo sapiens, UniProt P23975); assay: Inhibition of [3H]norepinephrine uptake into HEK293 cells stably expressing hNET; type: cell-based; details: for selectivity for inhibition of NE over DA uptake: ratio of uptake IC50 values
T4 construct: expressed in transfected cells; host or cells: HEK-293
Source text: as §1, §6

[2] = tested on: Male Institute of Cancer Research (ICR) mice; assay: Locomotor activity, antagonism of nicotine effect; type: in vivo; details: for AD50 Locomotion: pretreatment 15 min before nicotine […] s.c.; for ED50: Mus musculus, pretreatment 15 min before nicotine 1.5 mg/kg s.c., read-out: AD50 Locomotion
Source text: Animals: Male Institute of Cancer Research (ICR) mice (weighing 20-25 g) obtained from Harlan (Indianapolis, Ind.) were used throughout the study. Animals were housed in an Association for Assessment and Accreditation of Laboratory Animal Care-approved facility, were placed in groups of six, and had free access to food and water. Studies were approved by the Institutional Animal Care and Use Committee of Virginia Commonwealth University.
Locomotor Activity: Mice were placed into individual Omnitech photocell activity cages (28×16.5 cm; Omnitech Electronics, Columbus, Ohio) 5 min after subcutaneous administration of either 0.9% saline or nicotine (1.5 mg/kg). Interruptions of the photocell beams (two banks of eight cells each) were then recorded for the next 10 min. Data were expressed as the number of photocell interruptions.

α3β4*-nAChR = biological target: T5, α3β4*-nAChR (Homo sapiens, UniProt P30926+P32297); assay: 86Rb+ efflux nAChR functional assay, SH-SY5Y cells; type: cell-based; details: EC80-EC90 carbamylcholine; SH-SY5Y; parentheses = S.E.M. as multiplication/division factor; read-out: nAChR inhibition IC50 α3β4±
T5 construct: other: EC80-EC90 carbamylcholine; SH-SY5Y; parentheses = S.E.M. as multiplication/division
Source text: as §1, §2, §3, §4, §5

[3] = EC80-EC90 carbamylcholine, SH-EP1-hα4β2, parentheses = S.E.M. as multiplication/division factor, read-out: nAChR inhibition IC50 α4β2
[4] = HEK293-hSERT, mean ± standard error of three independent experiments, read-out: monoamine uptake inhibition IC50 [3H]5HT
[5] = HEK293-hNET, mean ± standard error of three independent experiments, read-out: monoamine uptake inhibition IC50 [3H]NE

T2 sequence (P31645 whole entry): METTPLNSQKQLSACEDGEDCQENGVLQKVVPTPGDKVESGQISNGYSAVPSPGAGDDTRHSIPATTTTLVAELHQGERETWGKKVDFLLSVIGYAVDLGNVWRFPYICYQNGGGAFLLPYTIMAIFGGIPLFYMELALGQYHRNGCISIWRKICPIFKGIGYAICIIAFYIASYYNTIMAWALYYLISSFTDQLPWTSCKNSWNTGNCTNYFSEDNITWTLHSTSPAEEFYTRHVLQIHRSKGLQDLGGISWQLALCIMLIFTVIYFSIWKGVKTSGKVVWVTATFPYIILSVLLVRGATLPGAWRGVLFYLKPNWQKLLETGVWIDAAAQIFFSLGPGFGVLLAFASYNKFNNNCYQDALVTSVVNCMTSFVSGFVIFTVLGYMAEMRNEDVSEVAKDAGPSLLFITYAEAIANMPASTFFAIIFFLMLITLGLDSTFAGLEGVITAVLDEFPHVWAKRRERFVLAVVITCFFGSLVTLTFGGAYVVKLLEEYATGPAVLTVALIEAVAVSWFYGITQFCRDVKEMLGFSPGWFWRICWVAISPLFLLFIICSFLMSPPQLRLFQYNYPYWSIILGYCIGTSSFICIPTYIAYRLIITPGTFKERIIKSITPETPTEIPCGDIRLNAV
T5 sequence (P32297 32-505): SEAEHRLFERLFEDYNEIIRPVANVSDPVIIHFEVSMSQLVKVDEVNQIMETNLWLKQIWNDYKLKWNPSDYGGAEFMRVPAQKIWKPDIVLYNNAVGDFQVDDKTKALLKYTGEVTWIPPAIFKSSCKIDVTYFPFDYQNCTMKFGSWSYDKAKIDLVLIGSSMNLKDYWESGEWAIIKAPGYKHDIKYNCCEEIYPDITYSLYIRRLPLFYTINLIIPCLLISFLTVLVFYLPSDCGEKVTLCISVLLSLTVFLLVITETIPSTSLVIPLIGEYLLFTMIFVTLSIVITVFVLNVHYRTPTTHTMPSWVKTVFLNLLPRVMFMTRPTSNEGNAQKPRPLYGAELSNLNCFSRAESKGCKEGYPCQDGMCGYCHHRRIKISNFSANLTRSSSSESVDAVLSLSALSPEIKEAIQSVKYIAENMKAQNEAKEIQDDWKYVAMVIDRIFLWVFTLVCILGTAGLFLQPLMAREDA
T5 sequence (P30926 22-498): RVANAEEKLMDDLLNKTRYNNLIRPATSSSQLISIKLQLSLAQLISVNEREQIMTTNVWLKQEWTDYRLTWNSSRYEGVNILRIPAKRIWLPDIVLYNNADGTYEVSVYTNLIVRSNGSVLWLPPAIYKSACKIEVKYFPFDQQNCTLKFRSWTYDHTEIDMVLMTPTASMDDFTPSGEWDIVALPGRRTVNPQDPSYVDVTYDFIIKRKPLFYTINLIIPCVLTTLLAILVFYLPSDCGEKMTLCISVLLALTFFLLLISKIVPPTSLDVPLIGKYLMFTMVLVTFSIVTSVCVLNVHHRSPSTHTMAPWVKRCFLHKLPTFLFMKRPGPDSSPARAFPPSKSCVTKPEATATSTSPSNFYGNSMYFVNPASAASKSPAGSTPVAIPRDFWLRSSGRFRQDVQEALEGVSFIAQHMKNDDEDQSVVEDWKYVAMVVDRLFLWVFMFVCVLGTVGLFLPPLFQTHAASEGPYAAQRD
T1 sequence (P43681 29-627 limits assumed): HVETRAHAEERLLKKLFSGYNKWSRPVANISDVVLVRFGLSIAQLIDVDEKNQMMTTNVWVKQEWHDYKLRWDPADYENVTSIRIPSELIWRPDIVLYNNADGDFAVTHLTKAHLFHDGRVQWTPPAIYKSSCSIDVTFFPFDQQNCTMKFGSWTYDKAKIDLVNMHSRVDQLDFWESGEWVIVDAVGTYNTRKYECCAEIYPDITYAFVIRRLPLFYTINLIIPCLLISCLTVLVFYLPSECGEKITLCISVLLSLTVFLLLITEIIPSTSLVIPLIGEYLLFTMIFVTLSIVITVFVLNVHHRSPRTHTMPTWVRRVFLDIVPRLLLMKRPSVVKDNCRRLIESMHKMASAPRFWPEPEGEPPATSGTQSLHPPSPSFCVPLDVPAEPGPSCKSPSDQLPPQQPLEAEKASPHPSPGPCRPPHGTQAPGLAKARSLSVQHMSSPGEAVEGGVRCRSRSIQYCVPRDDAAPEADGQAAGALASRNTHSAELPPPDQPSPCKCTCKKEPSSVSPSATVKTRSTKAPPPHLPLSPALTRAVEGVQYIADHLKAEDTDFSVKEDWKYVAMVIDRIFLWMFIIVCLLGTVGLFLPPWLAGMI
T1 sequence (P30926 22-498): as the sequence (P30926 22-498) above
T3 sequence (P43681 29-627 limits assumed): as the sequence (P43681 29-627 limits assumed) above
T3 sequence (P17787 26-502): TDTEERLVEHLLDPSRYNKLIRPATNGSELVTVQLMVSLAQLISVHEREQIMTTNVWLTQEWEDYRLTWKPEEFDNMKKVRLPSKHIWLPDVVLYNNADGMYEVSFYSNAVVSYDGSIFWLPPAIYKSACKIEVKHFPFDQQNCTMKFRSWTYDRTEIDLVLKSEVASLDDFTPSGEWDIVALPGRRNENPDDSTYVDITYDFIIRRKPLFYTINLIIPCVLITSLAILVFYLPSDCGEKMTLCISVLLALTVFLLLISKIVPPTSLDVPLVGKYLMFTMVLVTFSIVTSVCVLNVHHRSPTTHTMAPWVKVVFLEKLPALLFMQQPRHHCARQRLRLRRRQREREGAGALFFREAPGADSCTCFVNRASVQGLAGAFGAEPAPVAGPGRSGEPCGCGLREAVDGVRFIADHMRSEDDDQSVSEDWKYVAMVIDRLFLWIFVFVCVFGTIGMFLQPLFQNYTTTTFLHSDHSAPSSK
T4 sequence (P23975 whole entry): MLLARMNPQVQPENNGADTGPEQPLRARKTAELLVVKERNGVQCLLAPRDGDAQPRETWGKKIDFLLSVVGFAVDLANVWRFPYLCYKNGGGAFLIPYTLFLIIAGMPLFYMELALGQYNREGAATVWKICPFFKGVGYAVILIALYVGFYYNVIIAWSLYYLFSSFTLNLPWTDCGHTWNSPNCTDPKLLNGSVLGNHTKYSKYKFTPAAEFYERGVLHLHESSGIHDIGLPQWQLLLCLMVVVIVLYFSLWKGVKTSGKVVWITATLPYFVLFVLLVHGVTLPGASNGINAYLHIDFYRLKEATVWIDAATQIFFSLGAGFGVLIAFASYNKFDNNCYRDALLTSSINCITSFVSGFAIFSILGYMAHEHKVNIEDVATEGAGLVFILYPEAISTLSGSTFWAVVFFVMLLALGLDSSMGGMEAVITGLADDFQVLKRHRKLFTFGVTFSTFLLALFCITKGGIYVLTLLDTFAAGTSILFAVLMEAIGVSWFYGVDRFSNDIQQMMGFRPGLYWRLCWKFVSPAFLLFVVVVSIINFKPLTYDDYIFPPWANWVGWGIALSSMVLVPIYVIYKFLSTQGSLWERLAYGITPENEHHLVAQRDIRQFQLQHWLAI

| SMILES | IC50 (α4β4-nAChR) [µM] | IC50 [1] [µM] | IC50 (α4β2-nAChR; [3]) [µM] | IC50 (NE transporters [h(NET)]) [nM] | selectivity for inhibition of NE uptake over α3β4*-nAChR function (NE transporters [h(NET)]) [fold] | AD50 Locomotion [2] | IC50 [1, 4] [µM] | IC50 (NE transporters [h(NET)]; [5]) [nM] | ED50 [2] [mg/kg] | IC50 (α4β2-nAChR) [µM] | IC50 (α3β4*-nAChR) [µM] | selectivity for inhibition of α4β2-nAChR over DA uptake inhibition (α4β2-nAChR) [fold] | selectivity for inhibition of NE over DA uptake (NE transporters [h(NET)]) [fold] | selectivity for α4β2-nAChR over other nAChR subtypes (α4β2-nAChR) [fold] |
| --- | --- | --- | --- | --- | --- | --- | --- | --- | --- | --- | --- | --- | --- | --- |
| CC1NC(C)(C)COC1(O)c1ccc(Cl)c(Cl)c1 (racemic) [Compound 4n, 2-(3,4-Dichlorophenyl)-3,5,5-trimethylmorpholin-2-ol] | 14 | 0.36 | 20 | 114 | ~23 | IA (IA: AD50 > 15 mg/kg) | – | – | – | – | – | – | – | – |
| CC1NC(C)(C)COC1(O)c1cc(Cl)cc(Cl)c1 (racemic) [Compound 4p, 2-(3,5-Dichlorophenyl)-3,5,5-trimethylmorpholin-2-ol] | 18 | – | 11 | – | 1.6 | – | > 10 | 2440 ± 730 | 1.9 | – | – | – | – | – |
| C[C@@H]1NC(C)(C)CO[C@@]1(O)c1ccccc1 [Compound 4b, (2S,3S)-2-Phenyl-3,5,5-trimethylmorpholin-2-ol] | 92 | – | 6.4 | – | – | IA (IA: AD50 > 15 mg/kg) | > 10 | 550 ± 90 | – | < 10 | 8.9 | – | – | – |
| C[C@@H]1NC(C)(C)CO[C@@]1(O)c1cccc(F)c1 [Compound 4c, (2S,3S)-2-(3-Fluorophenyl)-3,5,5-trimethylmorpholin-2-ol] | > 100 | > 10 | 1.3 | – | – | IA (IA: AD50 > 15 mg/kg) | – | 740 ± 150 | – | – | 15 | – | – | – |
| C[C@@H]1NC(C)(C)CO[C@@]1(O)c1cccc(Br)c1 [Compound 4d, (2S,3S)-2-(3-Bromophenyl)-3,5,5-trimethylmorpholin-2-ol] | 30 | > 10 | 0.55 | – | – | 2.6 mg/kg | – | 920 ± 300 | 2.6 | – | 3.2 | ~6 | ~3.6 | – |
| Cc1cccc([C@]2(O)OCC(C)(C)N[C@H]2C)c1 [Compound 4e, (2S,3S)-2-(m-Tolyl)-3,5,5-trimethylmorpholin-2-ol] | 64 | – | 6 | – | – | IA (IA: AD50 > 15 mg/kg) | > 10 | 1130 ± 20 | – | – | 8.6 | – | – | – |
| COc1cccc([C@]2(O)OCC(C)(C)N[C@H]2C)c1 [Compound 4f, (2S,3S)-2-(3-Methoxyphenyl)-3,5,5-trimethylmorpholin-2-ol] | > 100 | – | 10 | – | – | IA (IA: AD50 > 15 mg/kg) | > 10 | 3000 ± 900 | – | < 10 | 11 | – | 5 | – |
| C[C@@H]1NC(C)(C)CO[C@@]1(O)c1cccc([N+](=O)[O-])c1 [Compound 4g, (2S,3S)-2-(3-Nitrophenyl)-3,5,5-trimethylmorpholin-2-ol] | 80 | – | 4.8 | – | – | IA (IA: AD50 > 15 mg/kg) | > 10 | 1210 ± 340 | – | < 10 | 14 | – | 10 | ~3 |
| C[C@@H]1NC(C)(C)CO[C@@]1(O)c1ccc(F)cc1 [Compound 4h, (2S,3S)-2-(4-Fluorophenyl)-3,5,5-trimethylmorpholin-2-ol] | > 100 | – | 12 | – | – | IA (IA: AD50 > 15 mg/kg) | > 10 | 3800 ± 600 | – | – | 20 | – | – | – |
| C[C@@H]1NC(C)(C)CO[C@@]1(O)c1ccc(Cl)cc1 [Compound 4i, (2S,3S)-2-(4-Chlorophenyl)-3,5,5-trimethylmorpholin-2-ol] | 33 | – | 9.2 | – | – | IA (IA: AD50 > 15 mg/kg) | 4.6 ± 0.9 | 830 ± 90 | – | – | 5.1 | – | – | – |
| Cc1ccc([C@]2(O)OCC(C)(C)N[C@H]2C)cc1 [Compound 4j, (2S,3S)-3,5,5-Trimethyl-2-(4-methylphenyl)morpholin-2-ol] | 62 | – | 12 | – | – | IA (IA: AD50 > 15 mg/kg) | > 10 | 1680 ± 330 | – | – | 8.6 | – | – | – |
| COc1ccc([C@]2(O)OCC(C)(C)N[C@H]2C)cc1 [Compound 4k, (2S,3S)-2-(4-Methoxyphenyl)-3,5,5-trimethylmorpholin-2-ol] | 72 | > 10 | 27 | – | – | IA (IA: AD50 > 15 mg/kg) | – | > 10000 | – | – | 11 | – | – | – |
| C[C@@H]1NC(C)(C)CO[C@@]1(O)c1ccc(-c2ccccc2)cc1 [Compound 4l, (2S,3S)-2-Biphenyl-4-yl-3,5,5-trimethylmorpholin-2-ol] | 8.1 | > 10 | 1.8 | – | – | IA (IA: AD50 > 15 mg/kg) | – | 10300 | – | < 10 | 1.3 | – | – | – |
| C[C@@H]1NC(C)(C)CO[C@@]1(O)c1ccc(F)c(F)c1 [Compound 4m, (2S,3S)-2-(3,4-Difluorophenyl)-3,5,5-trimethylmorpholin-2-ol] | > 100 | – | 12 | – | – | IA (IA: AD50 > 15 mg/kg) | > 10 | 740 ± 110 | – | – | 11.9 | – | – | – |
